Laboratory results published in PMC8632988, “Inhibition of SYK and cSrc kinases can protect bone and cartilage in preclinical models of osteoarthritis and rheumatoid arthritis” (Scientific Reports, 2021).
Several values for one entry are separate records, joined by “and”; a condition that tells them apart may be missing. Equal entries are not always repeated.

Columns and labels:
CAMK2a = target: T1, CAMK2a (Homo sapiens, UniProt Q9UQM7); experiment: Kinase selectivity profile assay; type: biochemical; details: 500 nM; relative to DMSO; read-out: Residual enzymatic activity
T1 construct: purchased Reaction Biology Corporation
Description: (§1) The activity of MT-SYK-03 against cSrc kinase and selectivity profile towards other 341 kinases was determined at Reaction Biology Corporation (Malvern, PA, USA) using the standard kinase assay protocol. […]; unbound phosphate was removed by extensive washing of filters in phosphoric acid. Kinase activity data was expressed as the percent remaining kinase activity in test samples compared to vehicle (dimethyl sulfoxide) reactions based on the radioactivity of reaction products (see Table S2). Experiment was replicated twice.

CAMK4 = target: T2, CAMK4 (Homo sapiens, UniProt Q16566); experiment: Kinase selectivity profile assay; type: biochemical; details: 500 nM; relative to DMSO; read-out: Residual enzymatic activity
T2 construct: purchased Reaction Biology Corporation
Description: as §1

FMS = target: T3, FMS (Homo sapiens, UniProt P07333); experiment: Kinase selectivity profile assay; type: biochemical; details: 500 nM; relative to DMSO; read-out: Residual enzymatic activity
T3 construct: purchased Reaction Biology Corporation
Description: as §1

GRK6 = target: T4, GRK6 (Homo sapiens, UniProt P43250); experiment: Kinase selectivity profile assay; type: biochemical; details: 500 nM; relative to DMSO; read-out: Residual enzymatic activity
T4 construct: purchased Reaction Biology Corporation
Description: as §1

MAPKAPK5/PRAK = target: T5, MAPKAPK5/PRAK (Homo sapiens, UniProt Q8IW41); experiment: Kinase selectivity profile assay; type: biochemical; details: 500 nM; relative to DMSO; read-out: Residual enzymatic activity
T5 construct: purchased Reaction Biology Corporation
Description: as §1

MEK1 = target: T6, MEK1 (Homo sapiens, UniProt Q02750); experiment: Kinase selectivity profile assay; type: biochemical; details: 500 nM, relative to DMSO
T6 construct: purchased Reaction Biology Corporation
Description: as §1

MEK3 = target: T7, MEK3 (Homo sapiens, UniProt P46734); experiment: Kinase selectivity profile assay; type: biochemical; details: 500 nM; relative to DMSO; read-out: Residual enzymatic activity
T7 construct: purchased Reaction Biology Corporation
Description: as §1

PAK5 = target: T8, PAK5 (Homo sapiens, UniProt Q9P286); experiment: Kinase selectivity profile assay; type: biochemical; details: 500 nM; relative to DMSO; read-out: Residual enzymatic activity
T8 construct: purchased Reaction Biology Corporation
Description: as §1

PLK1 = target: T9, PLK1 (Homo sapiens, UniProt P53350); experiment: Kinase selectivity profile assay; type: biochemical; details: 500 nM; relative to DMSO; read-out: Residual enzymatic activity
T9 construct: purchased Reaction Biology Corporation
Description: as §1

Lewis rats, CIA model = experiment: Collagen-induced semi-established arthritis model in rats; type: in vivo, rat; details: for Bone Resorption score, Mean / Cartilage Damage score, Mean / Inflammation score, Mean / Pannus score, Mean / Periosteal Bone Formation score, Mean / Periosteal Naïve Bone Width Actual, Mean / Summed Histopathology Scores, Mean: group mean; for Bone Resorption score (0=normal to 5=severe) / Cartilage Damage score (0=normal to 5=severe) / Inflammation score (0=normal to 5=severe) / Pannus score (0=normal to 5=severe) / Periosteal Bone Formation score (0=normal to 5=severe) / Periosteal Naïve Bone Width 16x Measure / Periosteal Naïve Bone Width Actual / Summed Histopathology Scores: individual joint (animal, R/L); for Bone Resorption score, % inhibition / Cartilage Damage score, % inhibition / Inflammation score, % inhibition / Pannus score, % inhibition / Periosteal Bone Formation score, % inhibition / Periosteal Naïve Bone Width, % inhibition / Summed Histopathology Scores, % inhibition: vs vehicle
Description: Rat CIA model was performed was performed at Pharmenterprises, Russia and approved by Ethics Committee of Pharmenterprises. Female Lewis rats with body weight of 164–183 g (Charles River Laboratories, Inc., Wilmington, MA) were injected with porcine type II collagen (Chondrex) emulsified with Freund’s Incomplete Adjuvant (Sigma Aldrich) at two sites at the base of the tail according to standard protocol. On day 7, the rats were boosted with a second subcutaneous injection. On day 6 of the study, rats were randomized by body weight into six groups: a control group of four, and five treatment groups of eight. […] Disease progression was monitored via daily ankle thickness measurements. At study termination on day 16 rats were anesthetized with Isoflurane, bled by vacutainer through the descending aorta to exsanguinate and then euthanized for tissue collection. Hind paws were transected at the level of the medial and lateral malleolus, weighed, and collected for microscopy.
[…]

[1] = ankle, day 16, MT-SYK-03 103 mg/kg PO BID + MTX Veh PO QD
[2] = ankle, day 16, MT-SYK-03 103 mg/kg PO BID + MTX Veh PO QD, 103 mg/kg
[3] = ankle, day 16, MT-SYK-03 207 mg/kg PO BID
[4] = ankle, day 16, MT-SYK-03 207 mg/kg PO BID, 207 mg/kg
[5] = knee, day 16, MT-SYK-03 103 mg/kg PO BID + MTX Veh PO QD
[6] = knee, day 16, MT-SYK-03 103 mg/kg PO BID + MTX Veh PO QD, 103 mg/kg

T6 sequence (Q02750 whole entry): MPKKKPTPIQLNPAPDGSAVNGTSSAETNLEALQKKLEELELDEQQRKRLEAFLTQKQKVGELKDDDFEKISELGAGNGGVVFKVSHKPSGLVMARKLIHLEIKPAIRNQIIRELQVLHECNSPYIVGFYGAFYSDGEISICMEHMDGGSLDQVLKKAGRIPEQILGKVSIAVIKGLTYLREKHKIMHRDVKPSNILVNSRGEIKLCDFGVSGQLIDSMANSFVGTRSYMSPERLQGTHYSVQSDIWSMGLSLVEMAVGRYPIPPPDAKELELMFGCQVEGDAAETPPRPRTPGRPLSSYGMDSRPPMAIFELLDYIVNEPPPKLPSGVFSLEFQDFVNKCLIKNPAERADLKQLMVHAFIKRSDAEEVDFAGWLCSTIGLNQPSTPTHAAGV
T2 sequence (Q16566 whole entry): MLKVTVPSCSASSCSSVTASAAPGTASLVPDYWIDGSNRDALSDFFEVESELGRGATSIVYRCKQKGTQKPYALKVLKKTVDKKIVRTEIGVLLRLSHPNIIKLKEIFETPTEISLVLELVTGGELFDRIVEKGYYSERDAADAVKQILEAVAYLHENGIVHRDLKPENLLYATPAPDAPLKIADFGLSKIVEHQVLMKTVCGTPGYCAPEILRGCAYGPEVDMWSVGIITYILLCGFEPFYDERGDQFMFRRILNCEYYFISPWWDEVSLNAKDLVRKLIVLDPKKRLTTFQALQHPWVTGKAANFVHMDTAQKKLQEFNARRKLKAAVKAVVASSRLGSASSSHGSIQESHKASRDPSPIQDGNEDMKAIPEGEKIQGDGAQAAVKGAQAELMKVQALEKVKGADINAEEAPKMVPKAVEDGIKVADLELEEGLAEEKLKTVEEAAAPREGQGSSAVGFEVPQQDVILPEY
T7 sequence (P46734 whole entry): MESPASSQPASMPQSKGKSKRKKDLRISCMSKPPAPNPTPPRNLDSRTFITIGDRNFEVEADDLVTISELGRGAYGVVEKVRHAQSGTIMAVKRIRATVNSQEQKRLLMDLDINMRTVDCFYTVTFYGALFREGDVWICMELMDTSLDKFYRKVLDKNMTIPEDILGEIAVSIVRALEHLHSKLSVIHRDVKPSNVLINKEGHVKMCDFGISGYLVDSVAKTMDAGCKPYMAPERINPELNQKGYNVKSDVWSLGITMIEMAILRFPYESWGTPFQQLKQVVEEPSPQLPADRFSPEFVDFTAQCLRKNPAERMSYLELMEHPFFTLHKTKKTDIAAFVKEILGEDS
T8 sequence (Q9P286 whole entry): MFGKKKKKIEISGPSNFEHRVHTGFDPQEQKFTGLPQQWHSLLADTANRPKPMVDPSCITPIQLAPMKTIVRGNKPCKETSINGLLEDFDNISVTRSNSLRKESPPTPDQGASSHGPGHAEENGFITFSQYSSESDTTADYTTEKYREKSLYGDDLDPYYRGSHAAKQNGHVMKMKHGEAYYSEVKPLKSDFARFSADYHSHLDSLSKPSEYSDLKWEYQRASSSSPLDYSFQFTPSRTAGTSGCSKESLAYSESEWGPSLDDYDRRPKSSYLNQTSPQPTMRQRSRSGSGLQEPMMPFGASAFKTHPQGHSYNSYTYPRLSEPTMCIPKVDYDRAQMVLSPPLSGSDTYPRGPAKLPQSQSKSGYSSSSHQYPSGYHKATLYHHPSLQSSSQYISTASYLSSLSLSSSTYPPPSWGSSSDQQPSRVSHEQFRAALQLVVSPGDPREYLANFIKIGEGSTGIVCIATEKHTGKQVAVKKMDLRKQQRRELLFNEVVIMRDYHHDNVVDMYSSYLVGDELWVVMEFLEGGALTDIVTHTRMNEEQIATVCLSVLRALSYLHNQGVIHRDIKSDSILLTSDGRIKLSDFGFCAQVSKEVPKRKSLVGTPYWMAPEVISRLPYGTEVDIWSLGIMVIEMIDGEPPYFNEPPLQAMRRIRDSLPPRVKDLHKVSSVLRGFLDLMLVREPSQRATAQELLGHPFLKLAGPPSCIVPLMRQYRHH
T3 sequence (P07333 20-972): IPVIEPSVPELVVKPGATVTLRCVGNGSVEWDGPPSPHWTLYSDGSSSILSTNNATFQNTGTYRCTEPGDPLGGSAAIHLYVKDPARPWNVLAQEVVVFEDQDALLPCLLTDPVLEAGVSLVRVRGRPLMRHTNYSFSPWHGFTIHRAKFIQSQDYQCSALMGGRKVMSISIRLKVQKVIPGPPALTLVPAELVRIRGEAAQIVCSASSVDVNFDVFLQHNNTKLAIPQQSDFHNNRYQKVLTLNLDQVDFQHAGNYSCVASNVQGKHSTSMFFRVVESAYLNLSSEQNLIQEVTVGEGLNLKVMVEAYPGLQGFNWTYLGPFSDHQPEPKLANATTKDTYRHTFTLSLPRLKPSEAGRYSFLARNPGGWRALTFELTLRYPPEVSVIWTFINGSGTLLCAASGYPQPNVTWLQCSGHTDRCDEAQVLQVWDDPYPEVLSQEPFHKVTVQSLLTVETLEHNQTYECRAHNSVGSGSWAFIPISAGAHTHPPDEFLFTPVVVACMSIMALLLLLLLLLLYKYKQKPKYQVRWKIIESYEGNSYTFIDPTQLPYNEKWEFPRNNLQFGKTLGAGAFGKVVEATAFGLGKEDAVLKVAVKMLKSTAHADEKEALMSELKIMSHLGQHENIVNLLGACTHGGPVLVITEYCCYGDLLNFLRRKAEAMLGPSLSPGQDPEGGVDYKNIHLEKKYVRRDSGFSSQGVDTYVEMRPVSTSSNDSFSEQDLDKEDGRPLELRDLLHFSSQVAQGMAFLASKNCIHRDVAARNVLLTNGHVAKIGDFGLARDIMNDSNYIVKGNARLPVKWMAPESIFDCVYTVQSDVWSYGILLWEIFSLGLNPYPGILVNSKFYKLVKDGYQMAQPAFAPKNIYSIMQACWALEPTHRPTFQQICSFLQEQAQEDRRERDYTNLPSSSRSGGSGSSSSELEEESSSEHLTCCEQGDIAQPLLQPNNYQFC
T1 sequence (Q9UQM7 whole entry): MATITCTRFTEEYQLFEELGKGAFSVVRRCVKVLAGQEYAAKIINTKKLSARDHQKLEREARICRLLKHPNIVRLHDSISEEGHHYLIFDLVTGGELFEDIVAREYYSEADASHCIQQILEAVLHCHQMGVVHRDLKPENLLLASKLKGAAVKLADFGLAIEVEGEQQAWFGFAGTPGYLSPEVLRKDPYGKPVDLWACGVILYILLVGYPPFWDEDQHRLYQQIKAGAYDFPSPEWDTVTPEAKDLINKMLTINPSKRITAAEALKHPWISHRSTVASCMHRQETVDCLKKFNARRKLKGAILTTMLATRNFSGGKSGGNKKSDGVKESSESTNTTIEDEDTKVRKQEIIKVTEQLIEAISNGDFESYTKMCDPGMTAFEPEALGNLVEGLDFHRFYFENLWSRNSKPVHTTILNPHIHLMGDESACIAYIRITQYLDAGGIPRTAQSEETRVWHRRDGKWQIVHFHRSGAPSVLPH
T5 sequence (Q8IW41 whole entry): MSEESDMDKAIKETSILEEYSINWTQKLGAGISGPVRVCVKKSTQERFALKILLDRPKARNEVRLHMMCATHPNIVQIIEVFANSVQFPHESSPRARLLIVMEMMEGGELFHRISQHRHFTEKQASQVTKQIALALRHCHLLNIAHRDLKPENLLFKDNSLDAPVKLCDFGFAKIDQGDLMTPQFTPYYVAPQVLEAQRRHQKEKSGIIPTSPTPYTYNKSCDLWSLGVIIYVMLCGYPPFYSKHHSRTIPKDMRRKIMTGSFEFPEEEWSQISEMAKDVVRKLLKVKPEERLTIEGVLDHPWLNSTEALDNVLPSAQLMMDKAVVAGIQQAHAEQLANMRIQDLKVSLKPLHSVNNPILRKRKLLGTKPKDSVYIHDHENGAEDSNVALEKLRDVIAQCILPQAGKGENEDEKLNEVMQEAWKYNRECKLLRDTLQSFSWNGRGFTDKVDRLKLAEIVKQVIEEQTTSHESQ
T4 sequence (P43250 whole entry): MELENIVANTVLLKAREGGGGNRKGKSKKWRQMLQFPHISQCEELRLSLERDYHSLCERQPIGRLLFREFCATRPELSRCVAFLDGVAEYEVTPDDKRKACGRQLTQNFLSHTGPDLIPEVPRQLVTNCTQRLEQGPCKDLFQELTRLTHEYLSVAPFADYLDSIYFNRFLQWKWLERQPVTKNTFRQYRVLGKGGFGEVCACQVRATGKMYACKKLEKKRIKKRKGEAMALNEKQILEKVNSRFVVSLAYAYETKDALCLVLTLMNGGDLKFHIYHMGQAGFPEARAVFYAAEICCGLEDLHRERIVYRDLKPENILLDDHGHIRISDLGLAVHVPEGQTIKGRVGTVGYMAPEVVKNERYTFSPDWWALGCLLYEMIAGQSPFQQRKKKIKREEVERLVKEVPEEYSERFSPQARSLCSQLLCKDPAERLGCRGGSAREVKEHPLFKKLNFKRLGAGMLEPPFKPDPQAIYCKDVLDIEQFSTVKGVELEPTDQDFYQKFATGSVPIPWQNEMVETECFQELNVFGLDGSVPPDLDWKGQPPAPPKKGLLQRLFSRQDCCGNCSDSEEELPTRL
T9 sequence (P53350 whole entry): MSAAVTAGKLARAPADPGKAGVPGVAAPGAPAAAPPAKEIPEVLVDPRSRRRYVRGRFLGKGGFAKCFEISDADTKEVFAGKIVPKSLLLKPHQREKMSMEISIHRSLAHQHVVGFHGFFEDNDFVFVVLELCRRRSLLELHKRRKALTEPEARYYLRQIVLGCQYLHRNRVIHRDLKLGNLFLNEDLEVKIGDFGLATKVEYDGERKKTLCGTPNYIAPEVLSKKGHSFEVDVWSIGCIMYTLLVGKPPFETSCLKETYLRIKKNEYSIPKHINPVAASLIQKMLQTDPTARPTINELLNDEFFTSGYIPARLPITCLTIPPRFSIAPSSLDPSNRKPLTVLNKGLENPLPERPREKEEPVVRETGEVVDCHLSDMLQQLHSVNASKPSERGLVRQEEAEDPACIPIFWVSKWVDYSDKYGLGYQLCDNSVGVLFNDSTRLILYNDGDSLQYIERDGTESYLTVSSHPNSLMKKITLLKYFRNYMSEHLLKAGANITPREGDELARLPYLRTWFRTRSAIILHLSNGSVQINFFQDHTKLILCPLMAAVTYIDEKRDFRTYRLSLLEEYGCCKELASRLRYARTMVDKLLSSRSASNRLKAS

COc1cc(Nc2ncnc(Nc3cc4c(cn3)NC(=O)C(C)(C)O4)n2)cc(OC)c1OC [MT-SYK-03]
remaining activity at 0.5 µM (CAMK2a): 94.1%
remaining activity at 0.5 µM (CAMK4): 111%
remaining activity at 0.5 µM (FMS): 51.1%
remaining activity at 0.5 µM (GRK6): 100%
remaining activity at 0.5 µM (MAPKAPK5/PRAK): 92.3%
Residual enzymatic activity (MEK1): did not inhibit any
remaining activity at 0.5 µM (MEK1; read-out: Residual enzymatic activity): 107%
remaining activity at 0.5 µM (MEK3): 119%
remaining activity at 0.5 µM (PAK5): 98.5%
remaining activity at 0.5 µM (PLK1): 93.4%
Bone Resorption score, Mean (Lewis rats, CIA model; [1]): 1.50
Cartilage Damage score, Mean (Lewis rats, CIA model; [1]): 2.09
Inflammation score, Mean (Lewis rats, CIA model; [1]): 4.44
Pannus score, Mean (Lewis rats, CIA model; [1]): 1.50
Periosteal Bone Formation score, Mean (Lewis rats, CIA model; [1]): 1.19
Periosteal Naïve Bone Width Actual, Mean (Lewis rats, CIA model; [1]): 200.81 μm
Summed Histopathology Scores, Mean (Lewis rats, CIA model; [1]): 10.72
Bone Resorption score (0=normal to 5=severe) (Lewis rats, CIA model; [2]): 2 and 0.5 and 1
Cartilage Damage score (0=normal to 5=severe) (Lewis rats, CIA model; [2]): 3 and 0.5 and 2 and 1
Inflammation score (0=normal to 5=severe) (Lewis rats, CIA model; [2]): 5 and 2 and 4 and 3
Pannus score (0=normal to 5=severe) (Lewis rats, CIA model; [2]): 2 and 0.5 and 1
Periosteal Bone Formation score (0=normal to 5=severe) (Lewis rats, CIA model; [2]): 2 and 0 and 1 and 0.5
Periosteal Naïve Bone Width 16x Measure (Lewis rats, CIA model; [2]): 5 and 0 and 3 and 2 and 1 and 4
Periosteal Naïve Bone Width Actual (Lewis rats, CIA model; [2]): 315 μm and 0 μm and 189 μm and 126 μm and 63 μm and 252 μm
Summed Histopathology Scores (Lewis rats, CIA model; [2]): 14 and 3.5 and 12 and 13 and 10 and 6.5 and 7.5 and 8.5
Bone Resorption score, % inhibition (Lewis rats, CIA model; [1]): −2%
Cartilage Damage score, % inhibition (Lewis rats, CIA model; [1]): 13%
Inflammation score, % inhibition (Lewis rats, CIA model; [1]): 1%
Pannus score, % inhibition (Lewis rats, CIA model; [1]): -2%
Periosteal Bone Formation score, % inhibition (Lewis rats, CIA model; [1]): 7%
Periosteal Naïve Bone Width, % inhibition (Lewis rats, CIA model; [1]): 11%
Summed Histopathology Scores, % inhibition (Lewis rats, CIA model; [1]): 4%
Bone Resorption score, Mean (Lewis rats, CIA model; [3]): 1.06
Cartilage Damage score, Mean (Lewis rats, CIA model; [3]): 1.78
Inflammation score, Mean (Lewis rats, CIA model; [3]): 3.84
Pannus score, Mean (Lewis rats, CIA model; [3]): 1.06
Periosteal Bone Formation score, Mean (Lewis rats, CIA model; [3]): 0.69
Periosteal Naïve Bone Width Actual, Mean (Lewis rats, CIA model; [3]): 129.94 μm
Summed Histopathology Scores, Mean (Lewis rats, CIA model; [3]): 8.44
Bone Resorption score (0=normal to 5=severe) (Lewis rats, CIA model; [4]): 1 and 2 and 0 and 0.5
Cartilage Damage score (0=normal to 5=severe) (Lewis rats, CIA model; [4]): 2 and 3 and 0.5 and 1
Inflammation score (0=normal to 5=severe) (Lewis rats, CIA model; [4]): 4 and 5 and 0.5 and 1 and 2 and 3
Pannus score (0=normal to 5=severe) (Lewis rats, CIA model; [4]): 1 and 2 and 0 and 0.5
Periosteal Bone Formation score (0=normal to 5=severe) (Lewis rats, CIA model; [4]): 0.5 and 1 and 0 and 2
Periosteal Naïve Bone Width 16x Measure (Lewis rats, CIA model; [4]): 1 and 2 and 3 and 4 and 0 and 5
Periosteal Naïve Bone Width Actual (Lewis rats, CIA model; [4]): 63 μm and 126 μm and 189 μm and 252 μm and 0 μm and 315 μm
Summed Histopathology Scores (Lewis rats, CIA model; [4]): 8.5 and 12.5 and 13 and 12 and 10 and 1 and 1.5 and 3.5 and 4 and 14 and 6.5
Periosteal Naïve Bone Width, ANOVA to Vehicle (Lewis rats, CIA model; ankle, day 16, MT-SYK-03 207 mg/kg PO BID, p value): p < 0.05
Bone Resorption score, % inhibition (Lewis rats, CIA model; [3]): 28%
Cartilage Damage score, % inhibition (Lewis rats, CIA model; [3]): 26%
Inflammation score, % inhibition (Lewis rats, CIA model; [3]): 15%
Pannus score, % inhibition (Lewis rats, CIA model; [3]): 28%
Periosteal Bone Formation score, % inhibition (Lewis rats, CIA model; [3]): 46%
Periosteal Naïve Bone Width, % inhibition (Lewis rats, CIA model; [3]): 42%
Summed Histopathology Scores, % inhibition (Lewis rats, CIA model; [3]): 24%
Bone Resorption score, Mean (Lewis rats, CIA model; [5]): 0.66
Cartilage Damage score, Mean (Lewis rats, CIA model; [5]): 1.03
Inflammation score, Mean (Lewis rats, CIA model; [5]): 2.78
Pannus score, Mean (Lewis rats, CIA model; [5]): 0.72
Summed Histopathology Scores, Mean (Lewis rats, CIA model; [5]): 5.19
Bone Resorption score (0=normal to 5=severe) (Lewis rats, CIA model; [6]): 1 and 2 and 0 and 0.5
Cartilage Damage score (0=normal to 5=severe) (Lewis rats, CIA model; [6]): 2 and 0 and 1 and 0.5
Inflammation score (0=normal to 5=severe) (Lewis rats, CIA model; [6]): 5 and 0.5 and 4 and 3 and 2
Pannus score (0=normal to 5=severe) (Lewis rats, CIA model; [6]): 1 and 2 and 0 and 0.5
Summed Histopathology Scores (Lewis rats, CIA model; [6]): 9 and 11 and 0.5 and 7 and 8 and 5 and 4.5 and 3 and 1
Bone Resorption score, % inhibition (Lewis rats, CIA model; [5]): 9%
Cartilage Damage score, % inhibition (Lewis rats, CIA model; [5]): 21%
Inflammation score, % inhibition (Lewis rats, CIA model; [5]): 13%
